Assay results taken from patent publication US20050129779A1, “Use of a hsp inducing compound to limit the side effects of retinoids” (priority 2002, published 2005).

Tests used:
HSP 70 [1] = settings: ex vivo skin irradiated with 200 mJ/cm^2 UVB; 10^-7 retinoic acid; 1-3% extract
Experimental: The samples were either treated or untreated with 10^−7retinoic acid plus 1-3% of the extract from example 1. The skin samples were subsequently fixed in 9% formol salt for 10 hours. They were then embedded in paraffin using an automated method. 2-3 urn sections were then cut to be used for immunostaining.
The experiments in example three were repeated except that the skin samples were irradiated with a 200 mJ/cm^2 dose of UVB.

HSP 70 [2] = assay: Ex vivo immunostaining of HSP 70 in cultured skin samples; assay type: cell-based; settings: ex vivo skin cultured 5 days; 10^-7 retinoic acid; 1-3% extract
From the text: Ex vivo immunostaining studies have enabled it to be determined that HSP 70 is expressed in skin samples which have been cultured for 5 days. The samples were either treated or untreated with 10^−7retinoic acid plus 1-3% of the extract from example 1.

HSP 70 [3] = assay: Immuno-blot of HSP in cultured human fibroblasts; assay type: cell-based; settings: 10^-7 M ATRA, 3% extract
Experimental: […] Several different experimental conditions were used for the fibroblasts.
The conditions that were tested on the fibroblasts were as follows: • Control condition (non-treated cells) • Cells treated with 10^−7M all-trans retinoic acid (ATRA) • Cells treated with 3% of the extract from example 1 • Cells treated with 10^−7 M all-trans retinoic acid and 3% of the extract from example 1.
The results illustrated in FIGS. 1 and 2 represent the quantities of HSP obtained by immunoblotting carried out on the human fibroblasts following the treatments in various culture conditions.

IL-1 alpha = assay: Interleukin-1 ELISA in HaCat keratinocytes and fibroblasts (inflammation induced by retinoids); assay type: cell-based, human; settings: 10^-7 M ATRA 6 days, 3% extract 48 hours
Experimental: The Artemia extract from example 1 was used at 3% in in vitro tests in order to show the benefits of applying it in combination with retinoids, with the overall goal of diminishing the inflammation induced by retinoids.
Human HaCat keratinocytes and fibroblasts were cultured in 100mm diameter culture dishes. When the cells reached 50% confluence, they were either treated with 3% of extract from example 1 or not, for 48 hours. In a parallel manner, concentrations of 10^−7M all-trans retinoic acid (ATRA) were, or were not, applied.
The following experimental conditions were used for the different treatment groups: • Control condition (no treatment); • Extract from example 1 for 48n hours; • All-trans retinoic acid (ATRA) for 6 days; • All-trans retinoic acid (ATRA) for 6 days of which 48 hours were treated in combination with the extract from example 1.
After six days in culture, the dose of Interleukin-1 was determined using ELISA, to show evidence of an inflammatory reaction.

Structure (SMILES): CC1=C(/C=C/C(C)=C/C=C/C(C)=C/C(=O)O)C(C)(C)CCC1 [retinoic acid, all-trans retinoic acid]
- HSP 70 expression in skin samples following UV stress (immunostaining) (HSP 70 [1]): clearly diminished
- HSP 70 expression in skin samples (immunostaining) (HSP 70 [2]): clearly express less HSP 70 than non-treated skin samples
- HSP 70 expression (immuno-blot, FIG. 2) (HSP 70 [3]; aging human fibroblasts (printed: cultured)): slightly augmented
- HSP 70 expression (immuno-blot, FIG. 1) (HSP 70 [3]; young human fibroblasts (printed: cultured for 24 hours)): diminished
- IL-1 alpha concentration / inflammatory response (ELISA, FIG. 3) (IL-1 alpha): significantly augmented
